Measurements as given in ChEMBL document CHEMBL1158203, “A novel monogalactosylacylglycerol with inhibitory effect on platelet aggregation from the cyanophyceae Oscillatoria rosea” (J Nat Prod, 1996).
The source made the active and inactive calls. No cut-off for these calls is given here.

What was measured:
[1] = system: Platelet; experiment: Inhibition of thrombin-induced platelet aggregation in rabbit platelet-rich plasma at 100 ug/mL by turbidimetric method; assay type: functional, cell-free; conditions: Oryctolagus cuniculus
[2] = system: Platelet; experiment: Inhibition of ionomycin-induced platelet aggregation in rabbit platelet-rich plasma at 100 ug/mL by turbidimetric method; assay type: functional, cell-free; conditions: Oryctolagus cuniculus
[3] = system: Platelet; experiment: Inhibition of U46619-induced platelet aggregation in rabbit platelet-rich plasma at 100 ug/mL by turbidimetric method; assay type: functional, cell-free; conditions: Oryctolagus cuniculus
[4] = system: Platelet; experiment: Inhibition of U46619-induced platelet aggregation in rabbit platelet-rich plasma by turbidimetric method; assay type: functional, cell-free; conditions: Oryctolagus cuniculus
[5] = system: P388; experiment: Cytotoxicity against mouse P388 cells by MTT assay; assay type: functional

| IC50 [4] [µM] | Structure (SMILES) | Activity [1] | Activity [2] | Activity [3] | Activity [5] [µg/mL] |
| --- | --- | --- | --- | --- | --- |
|  | CCCCCCCCCCCCCC(=O)OC[C@@H](O)COP(=O)([O-])OCC[N+](C)(C)C | Active | Active | Active |  |
| 60 | CCCCCCCCCCCCCCCC(=O)OC[C@@H](O)CO[C@@H]1O[C@H](CO)[C@H](O)[C@H](O)C1O (single isomer, unassigned) | inactive | inactive | Active | >50 |
